Results: ChEMBL document CHEMBL5360587, “Differentiation-Promoting Effects of Okeaniamides A and B from an Okeania sp. Marine Cyanobacterium on Preadipocytes” (J Nat Prod, 2023)

Columns and labels:
3T3-L1 [1] = experiment: Induction of adipogenesis in mouse 3T3-L1 cells assessed as increase in lipid droplets formation incubated with media replacement for every 3 days and measured at day 9 in presence of insulin by Oil Red O staining based analysis; assay type: functional, cell-based; conditions: dose 1-10 µM, time 9.0 day
3T3-L1 [2] = experiment: Induction of adipogenesis in mouse 3T3-L1 cells assessed as fold increase in OD value at 10 uM incubated with media replacement for every 3 days and measured for day 9 in presence of insulin by Oil Red O staining based analysis; assay type: functional; conditions: time 9 day
3T3-L1 [3] = experiment: Cytotoxicity against mouse 3T3-L1 cells assessed as reduction in cell viability at 10 uM incubated for 3 days by MTT assay; assay type: toxicity, cell-based; conditions: 3t3-l1, 72 h, time 3 day

Structure (SMILES)	Activity (3T3-L1 [1])	fold change (FC) (3T3-L1 [2])	Activity (3T3-L1 [3])
CCCCCC/C=C/C/C(C)=C/[C@@H](C/C=C/CCC(=O)N(C)[C@@H](COC)C(=O)N1CCC[C@H]1C(=O)CC)OC	Dose-Dependent Effect	2.1	Non-Toxic
CCCCCCCCC/C(C)=C/[C@@H](C/C=C/CCC(=O)N(C)[C@@H](COC)C(=O)N1CCC[C@H]1C(C)=O)OC	Dose-Dependent Effect	2.3	Non-Toxic
